Measured values published in patent US7820623B2 (priority 2006, dated 2010).
Like-named read-outs stand apart in the source and are kept apart here. Bridge positions count the residues as written; N and C are the ends. Square brackets hold non-standard residues; d marks the D form. Peptide text beside a SMILES is read from it. 1Nal = N[C@@H](Cc1cccc2ccccc12)C(=O)O

Legend:
[1] = tested on: thapsigargin-induced IFN-g production in human whole blood; assay type: cell-based
[2] = tested on: thapsigargin-induced IL-2 production in human whole blood
[3] = read-out: Analogue Activity (IC50) WB/IFNg
[4] = read-out: Analogue Activity (IC50) WB/IL-2

Compound	IC50 ([1]; read-out: Average IC50 IFNg)	IC50 ([2]; read-out: Average IC50 IL-2)	IC50 [1, 3]	IC50 [2, 4]
GVIINVACKISRQCLEPCKKAGMRFGKCMNGKCHCTPK [Ala-7 (SEQ ID No: 1406)]	0.0591 nM	0.0675 nM		
CC[C@H](C)[C@@H]1NC(=O)[C@H](CCCCN)NC(=O)[C@@H](NC(=O)[C@H](CCCCN)NC(=O)[C@@H](NC(=O)[C@H](Cc2cccc3ccccc23)NC(=O)[C@@H](NC(=O)[C@@H](NC(=O)[C@@H](NC(=O)CN)C(C)C)[C@@H](C)CC)[C@@H](C)CC)C(C)C)CSSC[C@@H]2NC(=O)[C@H](CCCCN)NC(=O)CNC(=O)[C@H](Cc3ccccc3)NC(=O)[C@H](CCCNC(=N)N)NC(=O)[C@H](CCSC)NC(=O)CNC(=O)[C@H](C)NC(=O)[C@H](CCCCN)NC(=O)[C@H](CCCCN)NC(=O)[C@@H]3CSSC[C@@H](C(=O)N[C@H](C(=O)N4CCC[C@H]4C(=O)N[C@@H](CCCCN)C(=O)O)[C@@H](C)O)NC(=O)[C@H](Cc4c[nH]cn4)NC(=O)[C@H](CSSC[C@H](NC(=O)[C@H](CCC(N)=O)NC(=O)[C@H](CCCNC(=N)N)NC(=O)[C@H](CO)NC1=O)C(=O)N[C@@H](CC(C)C)C(=O)N[C@@H](CCC(=O)O)C(=O)N1CCC[C@H]1C(=O)N3)NC(=O)[C@H](CCCCN)NC(=O)CNC(=O)[C@H](CC(N)=O)NC(=O)[C@H](CCSC)NC2=O [N5Nal] (H-GVII[1Nal]VKCKISRQCLEPCKKAGMRFGKCMNGKCHCTPK-OH; disulfide 8-28, 14-33, 18-35)			0.431 nM	0.76 nM
CC[C@H](C)[C@@H]1NC(=O)[C@H](CCCCN)NC(=O)[C@@H](NC(=O)[C@H](CCCCN)NC(=O)[C@@H](NC(=O)[C@H](CC(N)=O)NC(=O)[C@@H](NC(=O)[C@@H](NC(=O)[C@@H](NC(=O)CN)C(C)C)[C@@H](C)CC)[C@@H](C)CC)C(C)C)CSSC[C@@H]2NC(=O)[C@H](CCCCN)NC(=O)CNC(=O)[C@H](Cc3ccccc3)NC(=O)[C@H](CCCNC(=N)N)NC(=O)[C@H](CCSC)NC(=O)CNC(=O)[C@H](C)NC(=O)[C@H](CCCCN)NC(=O)[C@H](CCCCN)NC(=O)[C@@H]3CSSC[C@@H](C(=O)N[C@H](C(=O)N4CCC[C@H]4C(=O)N[C@@H](CCCCN)C(=O)O)[C@@H](C)O)NC(=O)[C@H](Cc4c[nH]cn4)NC(=O)[C@H](CSSC[C@H](NC(=O)[C@H](CCC(N)=O)NC(=O)[C@H](CCCNC(=N)N)NC(=O)[C@H](CO)NC1=O)C(=O)N[C@@H](CC(C)C)C(=O)N[C@@H](CCC(=O)O)C(=O)N[C@@H](C)C(=O)N3)NC(=O)[C@H](CCCCN)NC(=O)CNC(=O)[C@H](CC(N)=O)NC(=O)[C@H](CCSC)NC2=O [P17A] (H-GVIINVKCKISRQCLEACKKAGMRFGKCMNGKCHCTPK-OH; disulfide 8-28, 14-33, 18-35)			0.173 nM	0.173 nM
CC[C@H](C)[C@@H]1NC(=O)[C@H](CCCNC(=N)N)NC(=O)[C@@H](NC(=O)[C@H](CCCCN)NC(=O)[C@@H](NC(=O)[C@H](CC(N)=O)NC(=O)[C@@H](NC(=O)[C@@H](NC(=O)[C@@H](NC(=O)CN)C(C)C)[C@@H](C)CC)[C@@H](C)CC)C(C)C)CSSC[C@@H]2NC(=O)[C@H](CCCCN)NC(=O)CNC(=O)[C@H](Cc3ccccc3)NC(=O)[C@H](CCCNC(=N)N)NC(=O)[C@H](CCSC)NC(=O)CNC(=O)[C@H](C)NC(=O)[C@H](CCCCN)NC(=O)[C@H](CCCCN)NC(=O)[C@@H]3CSSC[C@@H](C(=O)N[C@H](C(=O)N4CCC[C@H]4C(=O)N[C@@H](CCCCN)C(=O)O)[C@@H](C)O)NC(=O)[C@H](Cc4c[nH]cn4)NC(=O)[C@H](CSSC[C@H](NC(=O)[C@H](CCC(N)=O)NC(=O)[C@H](CCCNC(=N)N)NC(=O)[C@H](CO)NC1=O)C(=O)N[C@@H](CC(C)C)C(=O)N[C@@H](CCC(=O)O)C(=O)N1CCC[C@H]1C(=O)N3)NC(=O)[C@H](CCCCN)NC(=O)CNC(=O)[C@H](CC(N)=O)NC(=O)[C@H](CCSC)NC2=O [K9R] (H-GVIINVKCRISRQCLEPCKKAGMRFGKCMNGKCHCTPK-OH; disulfide 8-28, 14-33, 18-35)			0.077 nM	0.107 nM
CC[C@H](C)[C@@H]1NC(=O)[C@H](CCCCN)NC(=O)[C@@H](NC(=O)[C@H](CCCCN)NC(=O)[C@@H](NC(=O)[C@H](CC(N)=O)NC(=O)[C@@H](NC(=O)[C@@H](NC(=O)[C@@H](NC(=O)CN)C(C)C)[C@@H](C)CC)[C@@H](C)CC)C(C)C)CSSC[C@@H]2NC(=O)[C@H](CCCCN)NC(=O)CNC(=O)[C@H](Cc3ccccc3)NC(=O)[C@H](CCCNC(=N)N)NC(=O)[C@H](CCSC)NC(=O)CNC(=O)[C@H](C)NC(=O)[C@H](CCCCN)NC(=O)[C@H](CCCCN)NC(=O)[C@@H]3CSSC[C@@H](C(=O)N[C@@H](CCCNC(=N)N)C(=O)N4CCC[C@H]4C(=O)N[C@@H](CCCCN)C(=O)O)NC(=O)[C@H](Cc4c[nH]cn4)NC(=O)[C@H](CSSC[C@H](NC(=O)[C@H](CCC(N)=O)NC(=O)[C@H](CCCNC(=N)N)NC(=O)[C@H](CO)NC1=O)C(=O)N[C@@H](CC(C)C)C(=O)N[C@@H](CCC(=O)O)C(=O)N1CCC[C@H]1C(=O)N3)NC(=O)[C@H](CCCCN)NC(=O)CNC(=O)[C@H](CC(N)=O)NC(=O)[C@H](CCSC)NC2=O [T36R] (H-GVIINVKCKISRQCLEPCKKAGMRFGKCMNGKCHCRPK-OH; disulfide 8-28, 14-33, 18-35)			10.1 nM	9.7 nM
CC[C@H](C)[C@@H]1NC(=O)[C@H](CCCCN)NC(=O)[C@@H](NC(=O)[C@H](C)NC(=O)[C@@H](NC(=O)[C@H](CC(N)=O)NC(=O)[C@@H](NC(=O)[C@@H](NC(=O)[C@@H](NC(=O)CN)C(C)C)[C@@H](C)CC)[C@@H](C)CC)C(C)C)CSSC[C@@H]2NC(=O)[C@H](CCCCN)NC(=O)CNC(=O)[C@H](Cc3ccccc3)NC(=O)[C@H](CCCNC(=N)N)NC(=O)[C@H](CCSC)NC(=O)CNC(=O)[C@H](C)NC(=O)[C@H](CCCCN)NC(=O)[C@H](CCCCN)NC(=O)[C@@H]3CSSC[C@@H](C(=O)N[C@H](C(=O)N4CCC[C@H]4C(=O)N[C@@H](CCCCN)C(=O)O)[C@@H](C)O)NC(=O)[C@H](Cc4c[nH]cn4)NC(=O)[C@H](CSSC[C@H](NC(=O)[C@H](CCC(N)=O)NC(=O)[C@H](CCCNC(=N)N)NC(=O)[C@H](CO)NC1=O)C(=O)N[C@@H](CC(C)C)C(=O)N[C@@H](CCC(=O)O)C(=O)N1CCC[C@H]1C(=O)N3)NC(=O)[C@H](CCCCN)NC(=O)CNC(=O)[C@H](CC(N)=O)NC(=O)[C@H](CCSC)NC2=O [K7A] (H-GVIINVACKISRQCLEPCKKAGMRFGKCMNGKCHCTPK-OH; disulfide 8-28, 14-33, 18-35)			0.0591 nM	0.0675 nM
CC[C@H](C)[C@@H]1NC(=O)[C@H](CCCCN)NC(=O)[C@@H](NC(=O)[C@H](CCCCN)NC(=O)[C@@H](NC(=O)[C@H](CC(N)=O)NC(=O)[C@@H](NC(=O)[C@@H](NC(=O)[C@@H](NC(=O)CN)C(C)C)[C@@H](C)CC)[C@@H](C)CC)C(C)C)CSSC[C@@H]2NC(=O)[C@H](CCCCN)NC(=O)CNC(=O)[C@H](Cc3ccccc3)NC(=O)[C@H](CCCNC(=N)N)NC(=O)[C@H](CCSC)NC(=O)CNC(=O)[C@H](C)NC(=O)[C@H](CCCCN)NC(=O)[C@H](CCCCN)NC(=O)[C@@H]3CSSC[C@@H](C(=O)N[C@H](C(=O)N4CCC[C@H]4C(=O)N[C@@H](CCCCN)C(=O)O)[C@@H](C)O)NC(=O)[C@H](Cc4c[nH]cn4)NC(=O)[C@H](CSSC[C@H](NC(=O)[C@H](CCC(N)=O)NC(=O)[C@H](CCCNC(=N)N)NC(=O)[C@H](CO)NC1=O)C(=O)N[C@@H](CCCNC(=N)N)C(=O)N[C@@H](CCC(=O)O)C(=O)N1CCC[C@H]1C(=O)N3)NC(=O)[C@H](CCCCN)NC(=O)CNC(=O)[C@H](CC(N)=O)NC(=O)[C@H](CCSC)NC2=O [L15R] (H-GVIINVKCKISRQCREPCKKAGMRFGKCMNGKCHCTPK-OH; disulfide 8-28, 14-33, 18-35)			0.116 nM	0.093 nM
GVIINVKCKISRQCLEPCKKAGMRFGKCMNGKCACTPK [Ala-34 (SEQ ID No: 1428)]	0.0573 nM	0.0725 nM		
CC[C@H](C)[C@@H]1NC(=O)[C@H](CCCCN)NC(=O)[C@@H](NC(=O)[C@H](CCCCN)NC(=O)[C@@H](NC(=O)[C@H](CC(N)=O)NC(=O)[C@@H](NC(=O)[C@@H](NC(=O)[C@@H](NC(=O)CN)C(C)C)[C@@H](C)CC)[C@@H](C)CC)C(C)C)CSSC[C@@H]2NC(=O)[C@H](CCCCN)NC(=O)CNC(=O)[C@H](Cc3ccccc3)NC(=O)[C@H](CCCNC(=N)N)NC(=O)[C@H](CCSC)NC(=O)CNC(=O)[C@H](C)NC(=O)[C@H](CCCCN)NC(=O)[C@H](CCCCN)NC(=O)[C@@H]3CSSC[C@@H](C(=O)N[C@H](C(=O)N4CCC[C@H]4C(=O)N[C@@H](CCCCN)C(=O)O)[C@@H](C)O)NC(=O)[C@H](Cc4c[nH]cn4)NC(=O)[C@H](CSSC[C@H](NC(=O)[C@H](CCC(=O)O)NC(=O)[C@H](CCCNC(=N)N)NC(=O)[C@H](CO)NC1=O)C(=O)N[C@@H](CC(C)C)C(=O)N[C@@H](CCC(=O)O)C(=O)N1CCC[C@H]1C(=O)N3)NC(=O)[C@H](CCCCN)NC(=O)CNC(=O)[C@H](CC(N)=O)NC(=O)[C@H](CCSC)NC2=O [Q13E] (H-GVIINVKCKISRECLEPCKKAGMRFGKCMNGKCHCTPK-OH; disulfide 8-28, 14-33, 18-35)			0.799 nM	1.06 nM
GVIINVKCKISRQCLEPCKKAGARFGKCMNGKCHCTPK [Ala-23 (SEQ ID No: 1419)]	0.275 nM	0.275 nM		
CC[C@H](C)[C@@H]1NC(=O)[C@H](CCCCN)NC(=O)[C@@H](NC(=O)[C@H](CCCCN)NC(=O)[C@@H](NC(=O)[C@H](CC(N)=O)NC(=O)[C@@H](NC(=O)[C@@H](NC(=O)[C@@H](NC(=O)CN)C(C)C)[C@@H](C)CC)[C@@H](C)CC)C(C)C)CSSC[C@@H]2NC(=O)[C@H](CCCCN)NC(=O)CNC(=O)[C@H](Cc3ccccc3)NC(=O)[C@H](CCCNC(=N)N)NC(=O)[C@H](CCSC)NC(=O)CNC(=O)[C@H](C)NC(=O)[C@H](CCCCN)NC(=O)[C@H](CCCCN)NC(=O)[C@@H]3CSSC[C@@H](C(=O)N[C@H](C(=O)N4CCC[C@H]4C(=O)N[C@@H](CCCCN)C(=O)O)[C@@H](C)O)NC(=O)[C@H](Cc4c[nH]cn4)NC(=O)[C@H](CSSC[C@H](NC(=O)[C@H](CCC(N)=O)NC(=O)[C@H](CCCNC(=N)N)NC(=O)[C@H](CO)NC1=O)C(=O)N[C@@H](CC(C)C)C(=O)N[C@@H](CCC(=O)O)C(=O)N1CCC[C@H]1C(=O)N3)NC(=O)[C@H](CCCNC(=N)N)NC(=O)CNC(=O)[C@H](CC(N)=O)NC(=O)[C@H](CCSC)NC2=O [K32R] (H-GVIINVKCKISRQCLEPCKKAGMRFGKCMNGRCHCTPK-OH; disulfide 8-28, 14-33, 18-35)			0.034 nM	0.028 nM
